According to patent publication US12036226B2, “Methods of treating subjects having diabetes with chronic kidney disease” (Poxel SA, priority 2018, dated 2024):

System: Japanese type 2 diabetic subjects
Experiment: Phase 2b dose-ranging placebo-controlled 24-week study in Japanese type 2 diabetic subjects
Type: in vivo, human
Details: for FPG LSM difference vs baseline / FPG LSM difference vs placebo: 24 weeks, FAS; for responder rate (subjects reaching HbA1c≤7%): end of 24-week treatment (placebo 8.2%)
Description: A Dose-Ranging, Randomized, Double-Blind, Placebo-Controlled, Parallel-Group, Multi-Center Study of the Efficacy and Safety of 3 Doses of Imeglimin after 24 Weeks of Treatment in Japanese Type 2 Diabetic Subjects
In this study, a total of 299 subjects with T2DM received either imeglimin at one of the 3 doses (500, 1000 and 1500 mg bid) or placebo. The primary objective of this study was to assess the dose-response of imeglimin at 3 doses (500, 1000 and 1500 mg bid) compared to placebo in male and female subjects with T2DM after 24 weeks of treatment, using glycosylated hemoglobin (HbA1c) as the primary endpoint. Inclusion Criteria: subjects have an eGFR of ≥50 mL/min/1.73 m^2 at screening and >=45 at pre randomization visit. A total of 299 subjects were randomized 1:1:1:1 to one of the 4 study arms, with 268 subjects completing the study.
Percentage of responders was defined as the percentage of subjects who reached a value of HbA1c≤7% at the end of the 24-week double-blind treatment period. The analysis was performed using the FAS for subjects with an HbA1c value greater than 7.0% at baseline.
In a post-hoc analysis, efficacy and safety/tolerability profile was investigated in patients depending on their renal function (CKD 1=eGFR≥90 mL/min/1.73 m^2, CKD2=60≤eGFR<90 mL/min/1.73 m^2, CKD3A=45≤eGFR<60 mL/min/1.73 m^2). 299 patients were randomized 74% of the patients had CKD2, 14% had CKD1, and 12% CKD3A, respectively. The primary endpoint was met with a statistically significant dose-dependent placebo subtracted decrease in HbA1c at the 3 doses with the 2 top doses of 1,000 and 1,500 mg bid reaching an HbA1c decrease of −0.94% and −1.00% respectively (Table 5). […] There were no major differences in the incidence of AE, SAE or AE leading to treatment discontinuation.

[1] = CKD Stage 2 (eGFR = 60-90 mL/min/1.73 m^2), 500 mg BID
[2] = CKD Stage 2 (eGFR = 60-90 mL/min/1.73 m^2), 500 mg BID, N 56
[3] = CKD Stage 2 (eGFR = 60-90 mL/min/1.73 m^2), 1000 mg BID
[4] = CKD Stage 2 (eGFR = 60-90 mL/min/1.73 m^2), 1000 mg BID, N 57
[5] = CKD Stage 2 (eGFR = 60-90 mL/min/1.73 m^2), 1500 mg BID
[6] = CKD Stage 2 (eGFR = 60-90 mL/min/1.73 m^2), 1500 mg BID, N 51
[7] = CKD Stage 3a (eGFR < 60 mL/min/1.73 m^2), 500 mg BID
[8] = CKD Stage 3a (eGFR < 60 mL/min/1.73 m^2), 500 mg BID, N 10
[9] = CKD Stage 3a (eGFR < 60 mL/min/1.73 m^2), 1000 mg BID
[10] = CKD Stage 3a (eGFR < 60 mL/min/1.73 m^2), 1000 mg BID, N 7
[11] = CKD Stage 3a (eGFR < 60 mL/min/1.73 m^2), 1500 mg BID
[12] = CKD Stage 3a (eGFR < 60 mL/min/1.73 m^2), 1500 mg BID, N 8
[13] = Normal eGFR (eGFR > 90 mL/min/1.73 m^2), 500 mg BID
[14] = Normal eGFR (eGFR > 90 mL/min/1.73 m^2), 500 mg BID, N 9
[15] = Normal eGFR (eGFR > 90 mL/min/1.73 m^2), 1000 mg BID
[16] = Normal eGFR (eGFR > 90 mL/min/1.73 m^2), 1000 mg BID, N 9
[17] = Normal eGFR (eGFR > 90 mL/min/1.73 m^2), 1500 mg BID
[18] = Normal eGFR (eGFR > 90 mL/min/1.73 m^2), 1500 mg BID, N 14

C[C@H]1N=C(N(C)C)N=C(N)N1 [imeglimin, (6R)—N^2, N^2,6-trimethyl-3,6-dihydro-1,3,5-triazine-2,4-diamine]
TEAE leading to discontinuation (500 mg (placebo 13.3%)): 2.7% | FPG LSM difference vs baseline (500 mg bid): 8.0 mg/dL | FPG LSM difference vs placebo (500 mg bid): -8.6 mg/dL | placebo-adjusted change in HbA1c (500 mg bid, baseline HbA1c <8%): −0.47% | placebo-adjusted change in HbA1c (500 mg bid, baseline HbA1c ≥8%): −0.58% | TEAE leading to discontinuation (1000 mg (placebo 13.3%)): 6.8% | FPG LSM difference vs baseline (1000 mg bid): -8.0 mg/dL | FPG LSM difference vs placebo (1000 mg bid): -24.6 mg/dL | placebo-adjusted change in HbA1c (1000 mg bid, baseline HbA1c <8%): −0.93% | placebo-adjusted change in HbA1c (1000 mg bid, baseline HbA1c ≥8%): −0.90% | responder rate (subjects reaching HbA1c≤7%) (1000 mg bid): 33.3% | TEAE leading to discontinuation (1500 mg (placebo 13.3%)): 6.7% | subjects requiring a rescue therapy due to poor glycemic control (1500 mg bid (placebo 10.7%)): no subjects requiring rescue therapy | FPG LSM difference vs baseline (1500 mg bid): -8.0 mg/dL | FPG LSM difference vs placebo (1500 mg bid): -24.6 mg/dL | placebo-adjusted change in HbA1c (1500 mg bid, baseline HbA1c <8%): −0.82% | placebo-adjusted change in HbA1c (1500 mg bid, baseline HbA1c ≥8%): −1.2% | responder rate (subjects reaching HbA1c≤7%) (1500 mg bid): 32.9% | Decrease in FPG (placebo-adjusted) (2 top doses of 1000 and 1500 mg bid): 1.37 mmol/L | SAE or AE leading to discontinuation (CKD3a subgroup, post-hoc analysis): No SAE or AE leading to discontinuation were observed | FPG LSM Difference vs. Placebo, Week 24 [1]: -14.2 mg/dL | HbA1c LSM Difference vs. Placebo (SEM), Week 24 [1]: −0.60% | Change in FPG from baseline, Week 24 LS Mean [2]: 5.8 mg/dL | Change in HbA1c from baseline, Week 24 LS Mean (SEM) [2]: −0.08 (0.109) % | HbA1c LSM Difference vs. Placebo (SEM), Week 24 (CKD Stage 2 (eGFR = 60-90 mL/min/1.73 m^2), 500 mg BID, listed as Imeglimin): −0.60 (0.154) % | FPG LSM Difference vs. Placebo, Week 24 [3]: -26.5 mg/dL | HbA1c LSM Difference vs. Placebo (SEM), Week 24 [3]: −1.03% | Change in FPG from baseline, Week 24 LS Mean [4]: -6.5 mg/dL | Change in HbA1c from baseline, Week 24 LS Mean (SEM) [4]: −0.51 (0.110) % | HbA1c LSM Difference vs. Placebo (SEM), Week 24 (CKD Stage 2 (eGFR = 60-90 mL/min/1.73 m^2), 1000 mg BID, listed as Imeglimin): −1.03 (0.155) % | FPG LSM Difference vs. Placebo, Week 24 [5]: -33.0 mg/dL | HbA1c LSM Difference vs. Placebo (SEM), Week 24 [5]: −1.11% | Change in FPG from baseline, Week 24 LS Mean [6]: -12.9 mg/dL | Change in HbA1c from baseline, Week 24 LS Mean (SEM) [6]: −0.58 (0.117) % | HbA1c LSM Difference vs. Placebo (SEM), Week 24 (CKD Stage 2 (eGFR = 60-90 mL/min/1.73 m^2), 1500 mg BID, listed as Imeglimin): −1.11 (0.160) % | FPG LSM Difference vs. Placebo, Week 24 [7]: -6.7 mg/dL | HbA1c LSM Difference vs. Placebo (SEM), Week 24 [7]: −0.54% | Change in FPG from baseline, Week 24 LS Mean [8]: 1.7 mg/dL | Change in HbA1c from baseline, Week 24 LS Mean (SEM) [8]: −0.32 (0.240) % | HbA1c LSM Difference vs. Placebo (SEM), Week 24 (CKD Stage 3a (eGFR < 60 mL/min/1.73 m^2), 500 mg BID, listed as Imeglimin): −0.54 (0.336) % | FPG LSM Difference vs. Placebo, Week 24 [9]: -11.2 mg/dL | HbA1c LSM Difference vs. Placebo (SEM), Week 24 [9]: −0.44% | Change in FPG from baseline, Week 24 LS Mean [10]: -2.8 mg/dL | Change in HbA1c from baseline, Week 24 LS Mean (SEM) [10]: −0.22 (0.282) % | HbA1c LSM Difference vs. Placebo (SEM), Week 24 (CKD Stage 3a (eGFR < 60 mL/min/1.73 m^2), 1000 mg BID, listed as Imeglimin): −0.44 (0.368) % | FPG LSM Difference vs. Placebo, Week 24 [11]: -20.6 mg/dL | HbA1c LSM Difference vs. Placebo (SEM), Week 24 [11]: −1.07% | Change in FPG from baseline, Week 24 LS Mean [12]: -12.2 mg/dL | Change in HbA1c from baseline, Week 24 LS Mean (SEM) [12]: −0.86 (0.265) % | HbA1c LSM Difference vs. Placebo (SEM), Week 24 (CKD Stage 3a (eGFR < 60 mL/min/1.73 m^2), 1500 mg BID, listed as Imeglimin): −1.07 (0.353) % | incidence of subjects presenting with Treatment Emergent (TE) AE (Imeglimin 1000 mg): 62.2% | incidence of subjects presenting with any adverse event (AE) (Imeglimin 1000 mg): 73% | incidence of subjects presenting with Treatment Emergent (TE) AE (Imeglimin 1500 mg): 73.3% | incidence of subjects presenting with any adverse event (AE) (Imeglimin 1500 mg): 77.3% | FPG LSM Difference vs. Placebo, Week 24 [13]: 14.5 mg/dL | HbA1c LSM Difference vs. Placebo (SEM), Week 24 [13]: −0.01 (0.290) % | Change in FPG from baseline, Week 24 LS Mean [14]: 15.9 mg/dL | Change in HbA1c from baseline, Week 24 LS Mean (SEM) [14]: 0.04 (0.221) % | FPG LSM Difference vs. Placebo, Week 24 [15]: -28.1 mg/dL | HbA1c LSM Difference vs. Placebo (SEM), Week 24 [15]: −0.85 (0.283) % | Change in FPG from baseline, Week 24 LS Mean [16]: -26.6 mg/dL | Change in HbA1c from baseline, Week 24 LS Mean (SEM) [16]: −0.8 (0.213) % | FPG LSM Difference vs. Placebo, Week 24 [17]: 5.1 mg/dL | HbA1c LSM Difference vs. Placebo (SEM), Week 24 [17]: −0.47 (0.260) % | Change in FPG from baseline, Week 24 LS Mean [18]: 6.6 mg/dL | Change in HbA1c from baseline, Week 24 LS Mean (SEM) [18]: −0.42 (0.175) % | incidence of TEAE considered as related to the study drug (imeglimin 500 mg (placebo 8%)): 5.3% | incidence of TEAE from the gastrointestinal disorder SOC (imeglimin 500 mg (placebo 14.7%)): 14.7% | serious TEAEs (imeglimin 500 mg bid): none | incidence of TEAE considered as related to the study drug (imeglimin 1000 mg (placebo 8%)): 5.4% | incidence of TEAE from the gastrointestinal disorder SOC (imeglimin 1000 mg (placebo 14.7%)): 18.9% | serious TEAEs (imeglimin 1000 mg bid): 5.4% | incidence of TEAE considered as related to the study drug (imeglimin 1500 mg (placebo 8%)): 24% | incidence of TEAE from the gastrointestinal disorder SOC (imeglimin 1500 mg (placebo 14.7%)): 32% | serious TEAEs (imeglimin 1500 mg bid): 1.3%
